Columns and labels:
[1] = tested on: mild-to-moderate Alzheimer's disease patients; test: Phase 2a clinical trial: EEG peak alpha frequency (PAF); type: in vivo; conditions: twelve patients, day 36 vs baseline
Method: The 36-day multicenter randomized clinical trial included both male and female mild-to-moderate Alzheimer's disease patients. ANAVEX2-73 was administered to twelve subjects as an add-on therapy to the donepezil current standard of care. ANAVEX2-73 was administered according to a two-period on-off-on cross-over dosing regimen in which the subjects were administered ANAVEX2-73 for 12 days (1st period) followed by a 12-day wash-out period before being administered ANAVEX2-73 for a second 12-day period (2nd period). Those subjects that were administered ANAVEX2-73 by oral administration during the 1st period were administered ANAVEX2-73 intravenously during the 2nd period, and vice versa. About half of the subjects were administered a 30 mg oral dosage form while the other half of subjects were administered a 50 mg oral dosage form. […]
Resting electroencephalographic (EEG) activity and event related potentials (EEG/ERP) were used to assess the cognitive effects of ANAVEX2-73 administration. Event related potentials (ERPs) are voltage changes time-locked to some physical or mental occurrence in ongoing electrical brain activity, as recorded by EEG. […]
Subjects were tested using a three-stimulus oddball paradigm. […] Electroencephalographic (EEG) activity was recorded from seven electrode sites (Fz, Cz, Pz, F3, P3, F4, and P4) of the international 10-20 system using a COGNISION™ Headset (Neuronetrix). […]

healthy male volunteers = test: Randomized, placebo-controlled single ascending dose Phase 1 study; type: in vivo
Method: See Poster: A Phase 1 Dose Escalation Study to Investigate Safety, Tolerability, and Pharmacokinetics of ANAVEX2-73 in Healthy Male Subjects, CNS Summit 2014, Boca Raton, FL, by Ole Voges, Ingo Weigmann, Norman Bitterlich, Christoph Schindler and Christopher Missling. […] Based on the frequency and intensity of […] adverse events (TEAEs) the maximum tolerable dose (MTD) and the minimum intolerable dose (MID) were defined as 55 mg and 60 mg, respectively.

[2] = tested on: patients with Alzheimer's disease or presenting with the early signs of Alzheimer's disease; test: Single-patient treatment examples with intermittent dosing regimen; type: in vivo; conditions: person
Description: The following examples show uses of ANAVEX2-73 in the treatment of patients with Alzheimer's disease or presenting with the early signs of Alzheimer's disease. The clinical determination that a patient may have Alzheimer's disease or is presenting with early signs of Alzheimer's disease is well known in the art. By way of example, the following references (and all publications cited herein) are incorporated by reference herein in their entireties: Dementia: From Diagnosis to Management - A Functional Approach 1st Edition, Psychology Press (February 17, 2009); Clinician's Guide to Psychological Assessment and Testing: With Forms and Templates for Effective Practice 1st Edition, Springer Publishing Company (September 18, 2012); Neurodegener. Dis. Manag. 5(3), 191-201 (2015); Artif. Intell. Med. 64(1), 59-74 (2015); Clin. Chem. 60(12), 1585-1586 (2014); and Metabolism 64(3 Suppl 1), S47-50 (2014).

[3] = tested on: mild-to-moderate Alzheimer's disease patients; test: Phase 2a clinical trial: safety profile; type: in vivo; conditions: during Phase 2a trials
Method: (§1) The 36-day multicenter randomized clinical trial included both male and female mild-to-moderate Alzheimer's disease patients. ANAVEX2-73 was administered to twelve subjects as an add-on therapy to the donepezil current standard of care. ANAVEX2-73 was administered according to a two-period on-off-on cross-over dosing regimen in which the subjects were administered ANAVEX2-73 for 12 days (1st period) followed by a 12-day wash-out period before being administered ANAVEX2-73 for a second 12-day period (2nd period). Those subjects that were administered ANAVEX2-73 by oral administration during the 1st period were administered ANAVEX2-73 intravenously during the 2nd period, and vice versa. About half of the subjects were administered a 30 mg oral dosage form while the other half of subjects were administered a 50 mg oral dosage form. The intravenous dosage was either 3 mg or 5 mg, with about half of the subjects administered 3 mg and the other half administered 5 mg.
(§2) 5-9, were achieved without any dose optimization. […] An additional 20 subjects will be studied during the remainder of the Phase 2a clinical trial. Phase 2b clinical trials, involving an additional 26-week extension of daily oral dosage administration of ANAVEX2-73 is on-going.

[4] = tested on: mild-to-moderate Alzheimer's disease patients; test: Phase 2a clinical trial: MMSE and Cogstate scales; type: in vivo; conditions: preliminary; twelve subjects, on-off-on regimen
Method: as §1, §2

[5] = tested on: muscarinic acetylcholine receptors; conditions: 'is believed to bind'; cited from earlier work
amyloid toxicity in mice = conditions: cited from earlier work
[6] = tested on: mild-to-moderate Alzheimer's disease patients; test: Phase 2a clinical trial: event related potentials (ERP), auditory P300, three-stimulus oddball paradigm; type: in vivo
Method: as §1
Resting electroencephalographic (EEG) activity and event related potentials (EEG/ERP) were used to assess the cognitive effects of ANAVEX2-73 administration. Event related potentials (ERPs) are voltage changes time-locked to some physical or mental occurrence in ongoing electrical brain activity, as recorded by EEG. Event-related potentials (ERPs) provide a sensitive and reliable measure of the cognitive effects associated with early Alzheimer's disease. […] See for example, New Encycl. Neurosci., Oxford Academic Press, p. 13-18 (2009). For example, ERP tests on young presymptomatic individuals who carry mutations in the presenilin-1 and amyloid precursor protein genes show significant changes in ERP patterns years before the onset of behavioral symptoms and the development of Alzheimer's disease. See for example, Neurology 73, 1649-1655 (2009); Neurology 77, 469-475 (2011). […] For instance, ERP markers of cognitive function are increasingly altered in longitudinal studies on individuals with mild cognitive impairment (MCI) and Alzheimer's disease patients. See for example, Clin. Neurophysiol. 122, 1322-1326 (2011); Clin. Neurophysiol. 121, 194-199 (2010). […] See for example, Neurol. Neurochir. Pol. 35 Suppl 3, 37-43 (2001); Clin. Neuropharmacol. 25, 207-215 (2002); Neurosci. Biomed. Eng. 1, 34-39 (2013).
In particular, the auditory P300 component of the ERP has been widely applied in the study of age-related cognitive dysfunction because it is thought to reflect attentional and memory processes. Auditory P300 is a positive deflection occurring at about 300 ms from stimulus onset. It is generated by the activation of multiple neocortical and limbic regions. Auditory P300 has two functionally different components, an earlier P3a component that is maximal over frontocentral regions, and a later P3b component (hereafter "P300") that is maximal at the posterior scalp locations. See for example, Int. J. of Alzheimer's Dis. 2011, Article ID 653173, 1-7 (2011). P300 amplitude data collected as part of a double blind six month study for 15 patients with mild Alzheimer's disease on donepezil, as compared to a vitamin E baseline, has shown that P300 amplitude data correlates with ADAS-Cog and MMSE data for the same patients. See, Clin. Neuropharmacol. 25(4), 207-215 (2002).
Subjects were tested using a three-stimulus oddball paradigm. Stimuli comprised of standard tones (1000 Hz), target tones (2000 Hz) and unexpected distractor tones (white noise) that were played with probabilities of 0.75, 0.15, and 0.10. Tones were presented in pseudorandom order, so that target and distractor tones were never presented sequentially. Subjects were instructed to respond to the target stimuli by pressing a button with their dominant hand. For each test, between 300 and 400 stimuli were presented binaurally through insert ear phones at 70 dB volume. The tone duration for each stimulus was 100 ms with rise and fall times of 10 ms. The interstimulus interval was randomized between 1.5 and 2 s. […]

sigma-1 = sigma-1 (Homo sapiens, UniProt Q99720); conditions: sigma-1 receptor; 'is believed to bind'; cited from earlier work
sigma-1, sequence (Q99720 whole entry): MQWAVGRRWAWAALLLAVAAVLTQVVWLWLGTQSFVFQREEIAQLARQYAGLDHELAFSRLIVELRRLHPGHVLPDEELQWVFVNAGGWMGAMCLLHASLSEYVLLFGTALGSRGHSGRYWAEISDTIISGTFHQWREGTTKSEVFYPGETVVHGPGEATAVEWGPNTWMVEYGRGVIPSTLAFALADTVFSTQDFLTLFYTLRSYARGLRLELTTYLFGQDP

[7] = single ascending oral doses, healthy subjects

## CN(C)CC1CCOC1(c1ccccc1)c1ccccc1.Cl (stereo not drawn) [ANAVEX2-73, tetrahydro-N,N-dimethyl-2,2-diphenyl-3-furanmethanamine hydrochloride]
[1]
  peak alpha frequency (PAF): higher than the baseline measurement of PAF
Healthy male volunteers; ascending single oral doses of 1 mg, 10 mg, 30 mg, 40 mg, 50 mg, and 55 mg, healthy subjects
  safety and tolerability: safe and well tolerated
Healthy male volunteers; at highest doses
  observed adverse events: moderate and reversible dizziness and headache
Healthy male volunteers; male, human, in vivo, po
  minimum intolerable dose (MID): 60 mg
Healthy male volunteers; [7]
  Blood pressure and resting heart rate and other clinical parameters such as vital signs and 12-lead electrocardiogram (ECG): did not show any clinically relevant or dose-dependent changes
  QT interval and QTcB: did not reveal any clinically significant changes
  pharmacokinetics: suitable for daily oral dosing
  serious adverse events: No serious adverse events occurred
Healthy male volunteers; single oral dose, healthy male volunteers
  maximum tolerable dose (MTD): 55 mg
[2]; 3 mg intravenously, 5 days on / 20 days off, one year
  loss of cognitive function: stabilizes
[2]; 5 mg intravenously, 14 days on / 7 days off, one year
  loss of cognitive function: stabilizes
[2]; 30 mg oral, 10 days on / 10 days off, 6 months
  loss of cognitive function: stabilizes
[2]; 50 mg oral, 10 days on / 20 days off
  loss of cognitive function: stabilizes
[2]; 50 mg oral, 14 days on / 7 days off, 6 months
  loss of cognitive function: stabilized
[3]
  safety profile: consistent with the Phase 1 data
[4]
  Mini Mental State Examination (MMSE) and Cogstate scale changes: consistent with the observed trend of the cognitive EEG/ERP effect
[5]
  affinities: low micromolar range
Amyloid toxicity in mice; Aβ25-35 model
  Aβ25-35-induced P-Akt decrease and P-GSK-3β increase: blocked
  Aβ25-35-induced endogenous Aβ1-42 seeding: decrease
Amyloid toxicity in mice; Aβ25-35 model, in the dose-range tested
  hyperphosphorylation of Tau on physiological epitopes (AT-8 antibody clone) and on pathological epitopes (AT-100 clone): attenuated
Amyloid toxicity in mice; mice one week after i.c.v. injection of oligomeric Aβ25-35
  oxidative stress, caspases induction, cellular loss and learning and memory deficits: attenuating
[6]; 10 out of the 12 patients studied
  patients with improved P300 signal: 83%
[6]; P300 amplitude, Day 36 vs baseline, twelve patients, hydrochloride
  Percentage Increase Over Baseline Data: 38%
[6]; after 1 month vs donepezil after 6 months
  percent P300 amplitude change compared to historical data for patients administered donepezil: greater
[6]; day 36 (1 month) vs donepezil at the 1 month time point
  P300 amplitude change compared to historical data for patients administered donepezil: about four times higher
[6]; target detection task, Day 36, twelve patients (baseline 2.67 ± 1.12)
  False Alarms: 0.64 ± 0.26%
[6]; target detection task, Day 36, twelve patients (baseline 86.2 ± 4.47)
  Button Press Accuracy: 87.5 ± 4.01%
[6]; target detection task, Day 36, twelve patients (baseline 593 ± 33.0)
  Median Reaction Time: 534 ± 42.0 ms
[6]; twelve patients, day 36 vs baseline, on-off-on regimen (30 or 50 mg oral, 3 or 5 mg i.v.), add-on to donepezil
  P300 ERP wave data: improved measured cognitive performance as compared to the baseline data
sigma-1
  affinities: low micromolar range
